Results on one molecule are retold here after BindingDB's records for patent US11530198 (Vyera Pharmaceuticals, 2022).

The target in one assay is T1, Dihydrofolate reductase (Homo sapiens, UniProt P00374).
T1 sequence (P00374 whole entry): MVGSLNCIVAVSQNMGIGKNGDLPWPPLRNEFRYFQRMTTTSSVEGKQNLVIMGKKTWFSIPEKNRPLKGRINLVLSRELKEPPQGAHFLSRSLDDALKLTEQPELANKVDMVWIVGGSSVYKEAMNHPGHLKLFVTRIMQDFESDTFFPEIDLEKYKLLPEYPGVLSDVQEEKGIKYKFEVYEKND
Put plainly: Not found.

Assay [1] has as its target Bifunctional dihydrofolate reductase-thymidylate synthase (Leishmania major, UniProt P07382). The experiment in a line: Not found.

Bifunctional dihydrofolate reductase-thymidylate synthase, sequence (P07382 whole entry): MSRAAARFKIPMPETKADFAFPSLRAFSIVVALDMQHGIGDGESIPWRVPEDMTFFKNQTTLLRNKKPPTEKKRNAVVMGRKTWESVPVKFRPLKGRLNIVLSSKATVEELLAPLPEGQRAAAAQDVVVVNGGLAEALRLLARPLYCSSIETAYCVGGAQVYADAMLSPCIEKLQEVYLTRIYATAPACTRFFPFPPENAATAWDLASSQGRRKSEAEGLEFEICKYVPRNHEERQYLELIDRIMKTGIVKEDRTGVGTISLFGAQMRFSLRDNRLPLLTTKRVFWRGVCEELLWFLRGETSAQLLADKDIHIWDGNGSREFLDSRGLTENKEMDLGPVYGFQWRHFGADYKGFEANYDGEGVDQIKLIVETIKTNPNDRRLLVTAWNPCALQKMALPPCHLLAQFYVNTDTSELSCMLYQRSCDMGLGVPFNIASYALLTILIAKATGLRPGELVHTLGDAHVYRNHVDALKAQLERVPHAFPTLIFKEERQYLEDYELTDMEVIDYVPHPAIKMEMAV

Regarding `Nc1ncc(N2CCN(c3ccccc3-c3ccccc3)CC2)c(N)n1` [US11530198, Example 12], the IC50 (usually the concentration at which inhibition is half-maximal) turned out to be 214 nM at Dihydrofolate reductase and 7.41 nM in assay [1].
